Experimental data from ChEMBL document CHEMBL4339194 (J Med Chem, 2019).
Values belong to the molecule of their own block, whether it stands above or below them.

Legend:
Catenin beta-1 = target: T1, Catenin beta-1 (Homo sapiens, UniProt P35222)
T1 sequence (P35222 whole entry): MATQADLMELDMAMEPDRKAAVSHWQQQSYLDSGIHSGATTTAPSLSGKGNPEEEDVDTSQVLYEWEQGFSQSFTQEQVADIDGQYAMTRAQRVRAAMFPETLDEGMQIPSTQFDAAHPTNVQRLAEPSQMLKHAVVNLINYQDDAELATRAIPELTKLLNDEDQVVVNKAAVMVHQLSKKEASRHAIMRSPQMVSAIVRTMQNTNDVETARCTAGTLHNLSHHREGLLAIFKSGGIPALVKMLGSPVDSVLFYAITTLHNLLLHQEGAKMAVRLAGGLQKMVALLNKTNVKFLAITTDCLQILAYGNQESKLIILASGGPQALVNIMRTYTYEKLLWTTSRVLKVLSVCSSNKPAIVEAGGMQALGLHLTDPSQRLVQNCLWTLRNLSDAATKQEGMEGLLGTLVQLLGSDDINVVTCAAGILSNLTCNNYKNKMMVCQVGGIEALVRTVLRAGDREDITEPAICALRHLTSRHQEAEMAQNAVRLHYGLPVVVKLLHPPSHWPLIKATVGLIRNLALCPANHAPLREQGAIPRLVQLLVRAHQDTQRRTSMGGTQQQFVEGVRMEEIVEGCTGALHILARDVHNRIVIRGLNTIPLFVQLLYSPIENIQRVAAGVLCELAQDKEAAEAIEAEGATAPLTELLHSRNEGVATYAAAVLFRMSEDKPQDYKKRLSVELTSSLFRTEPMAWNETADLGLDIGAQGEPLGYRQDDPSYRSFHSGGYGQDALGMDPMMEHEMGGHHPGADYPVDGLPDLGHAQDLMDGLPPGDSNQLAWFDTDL

MDA-MB-231 = assay: Cytotoxicity against human MDA-MB-231 cells assessed as reduction in cell viability measured after 72 hrs by MTS assay; type: functional, cell-based; conditions: MDA-MB-231, 72 h
SW480 = assay: Cytotoxicity against human SW480 cells assessed as reduction in cell viability measured after 72 hrs by MTS assay; type: functional, cell-based; conditions: SW480, 72 h
A549 = assay: Cytotoxicity against human A549 cells assessed as reduction in cell viability measured after 72 hrs by MTS assay; type: functional, cell-based; conditions: A549, 72 h
MDA-MB-468 = assay: Cytotoxicity against human MDA-MB-468 cells assessed as reduction in cell viability measured after 72 hrs by MTS assay; type: functional, cell-based; conditions: MDA-MB-468, 72 h
HCT-116 = assay: Cytotoxicity against human HCT116 cells assessed as reduction in cell viability measured after 72 hrs by MTS assay; type: functional, cell-based; conditions: HCT-116, 72 h
BT-20 = assay: Cytotoxicity against human BT20 cells assessed as reduction in cell viability measured after 72 hrs by MTS assay; type: functional, cell-based; conditions: BT-20, 72 h
[1] = Drug uptake in human SW480 cells assessed as cell-bound level per million cells at 25 uM measured after 3 hrs by HPLC-MS analysis; type: ADME, cell-based; conditions: sw480, 3 h
[2] = Prodrug conversion in human SW480 cells assessed as (S)-4-((S)-2-((S)-2-(5-Chloro-1H-indole-2-carboxamido)-3-(naphthalen-2-yl)propanamido)-3-(2H-tetrazol-5-yl)propanamido)-5-oxo-5-((4-(trifluoromethoxy)phenyl)amino)pentanoic Acid formation at 25 uM measured after 24 hrs by HPLC-MS analysis; type: ADME, cell-based; conditions: sw480, 24 h

Compound: COC(=O)[C@H](CCC(=O)O)NC(=O)[C@H](CC(=O)O)NC(=O)[C@H](Cc1ccc2ccccc2c1)NC(=O)Cc1nc2ccc(Cl)cc2o1
- IC50 (Catenin beta-1): > 400 µM
- Ki (Catenin beta-1): > 100 µM

Compound: COC(=O)[C@H](CCC(=O)O)NC(=O)[C@H](CC(=O)O)NC(=O)[C@H](Cc1ccc2ccccc2c1)NC(=O)Cc1c[nH]c2ccc(Cl)cc12
- IC50 (Catenin beta-1): > 400 µM
- Ki (Catenin beta-1): > 100 µM

Compound: COC(=O)[C@H](CCC(=O)O)NC(=O)[C@H](CC(=O)O)NC(=O)[C@H](Cc1ccc2ccccc2c1)NC(=O)c1cc2cc(C)ccc2[nH]1
- IC50 (Catenin beta-1): > 400 µM
- Ki (Catenin beta-1): > 100 µM

Compound: COC(=O)[C@H](CCC(=O)O)NC(=O)[C@H](CC(=O)O)NC(=O)[C@H](Cc1ccc2ccccc2c1)NC(=O)Cc1nc2ccc(Cl)cc2s1
- IC50 (Catenin beta-1): 88 µM
- Ki (Catenin beta-1): 22 µM

Compound: CCOC(=O)CC[C@H](NC(=O)[C@H](CC(=O)OCC)NC(=O)[C@H](Cc1ccc2ccccc2c1)NC(=O)c1cc2cc(OC)ccc2[nH]1)C(=O)OC
- IC50 (MDA-MB-231): > 200 µM
- IC50 (Catenin beta-1): > 400 µM
- Ki (Catenin beta-1): > 100 µM
- IC50 (SW480): > 200 µM
- IC50 (A549): > 200 µM
- IC50 (MDA-MB-468): > 200 µM
- IC50 (HCT-116): > 200 µM
- IC50 (BT-20): > 200 µM

Compound: COC(=O)[C@H](CCC(=O)O)NC(=O)[C@H](CC(=O)O)NC(=O)[C@H](Cc1ccc2ccccc2c1)NC(=O)Cc1c[nH]c2cc(Cl)ccc12
- IC50 (Catenin beta-1): > 400 µM
- Ki (Catenin beta-1): > 100 µM

- Drug uptake [1]: 1.4 nmol/million cells
- Drug metabolism [2]: Metabolite_Notdetected
Compound: CCOC(=O)CC[C@H](NC(=O)[C@H](Cc1nn[nH]n1)NC(=O)[C@H](Cc1ccc2ccccc2c1)NC(=O)c1cc2cc(Cl)ccc2[nH]1)C(=O)Nc1ccc(OC(F)(F)F)cc1
- IC50 (MDA-MB-231): 16.6 µM
- IC50 (SW480): 17.7 µM
- IC50 (A549): 67.9 µM
- IC50 (MDA-MB-468): 10.6 µM
- IC50 (HCT-116): 60.6 µM

Compound: COC(=O)[C@H](CCC(=O)O)NC(=O)[C@H](CC(=O)O)NC(=O)[C@H](Cc1ccc2ccccc2c1)NC(=O)Cc1nc2cc(Cl)ccc2[nH]1
- IC50 (Catenin beta-1): > 400 µM
- Ki (Catenin beta-1): > 100 µM

Compound: COC(=O)[C@H](CCC(=O)O)NC(=O)[C@H](CC(=O)O)NC(=O)[C@H](Cc1ccc2ccccc2c1)NC(=O)Cc1nc2cc(Cl)ccc2s1
- IC50 (Catenin beta-1): > 400 µM
- Ki (Catenin beta-1): > 100 µM

Compound: COC(=O)[C@H](CCC(=O)O)NC(=O)[C@H](CC(=O)O)NC(=O)[C@H](Cc1ccc2ccccc2c1)NC(=O)c1cc2ccc(Cl)cc2[nH]1
- IC50 (Catenin beta-1): 60 µM
- Ki (Catenin beta-1): 15 µM

Compound: COC(=O)[C@H](CCC(=O)O)NC(=O)[C@H](CC(=O)O)NC(=O)[C@H](Cc1ccc2ccccc2c1)NC(=O)Cc1nc2cc(Cl)ccc2o1
- IC50 (Catenin beta-1): > 400 µM
- Ki (Catenin beta-1): > 100 µM

Compound: NC(=O)CC[C@H](NC(=O)[C@H](Cc1nn[nH]n1)NC(=O)[C@H](Cc1ccc2ccccc2c1)NC(=O)c1cc2cc(Cl)ccc2[nH]1)C(=O)Nc1ccc(OC(F)(F)F)cc1
- IC50 (MDA-MB-231): 29.3 µM
- IC50 (SW480): 24.6 µM
- IC50 (A549): 47.5 µM
- IC50 (MDA-MB-468): 26.9 µM
- IC50 (HCT-116): 57.8 µM
- IC50 (BT-20): 29.3 µM

Compound: COC(=O)[C@H](CCC(=O)O)NC(=O)[C@H](CC(=O)O)NC(=O)[C@H](Cc1ccc2ccccc2c1)NC(=O)c1cc2cc(OC)ccc2[nH]1
- IC50 (Catenin beta-1): > 400 µM
- Ki (Catenin beta-1): > 100 µM
